Laboratory results from ChEMBL document CHEMBL1201862, “PubChem BioAssay data set” (2004).
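Tested at 5 concentrations; 48 h exposure; 96-well plates; endpoints linearly interpolated, else capped at highest concentration. GI50 = concentration required for 50% inhibition of growth.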 Activity calls are given as the source filed them. No stated cut-off is given here; in the data, active = GI50 up to about 1.1 µM and inactive = higher.

Tests used:
Assay in all cases: NCI anticancer screen, dose series, 48 h
SK-MEL-28 = system: SK-MEL-28
UACC-257 = system: UACC-257
SK-MEL-2 = system: SK-MEL-2
U-251 = system: U-251
RXF 393 = system: RXF 393
CAKI-1 = system: CAKI-1
NCI-H23 = system: NCI-H23
SF-295 = system: SF-295
HCC 2998 = system: HCC 2998
OVCAR-8 = system: OVCAR-8
NCI/ADR-RES = system: NCI/ADR-RES
HT-29 = system: HT-29
Hs-578T = system: Hs-578T
MCF7 = system: MCF7
MDA-MB-231 = system: MDA-MB-231
EKVX = system: EKVX
SK-MEL-5 = system: SK-MEL-5
T47D = system: T47D
OVCAR-5 = system: OVCAR-5
HOP-92 = system: HOP-92
MDA-N = system: MDA-N
IGROV-1 = system: IGROV-1
SW-620 = system: SW-620
UO-31 = system: UO-31
OVCAR-3 = system: OVCAR-3
TK-10 = system: TK-10
A549 = system: A549
HCT-116 = system: HCT-116
CCRF-CEM = system: CCRF-CEM
ACHN = system: ACHN
LOX IMVI = system: LOX IMVI
OVCAR-4 = system: OVCAR-4
M14 = system: M14
NCI-H522 = system: NCI-H522
HL-60 = system: HL-60
SR = system: SR
COLO 205 = system: COLO 205
SF-268 = system: SF-268
SNB-19 = system: SNB-19
MDA-MB-435 = system: MDA-MB-435
PC-3 = system: PC-3
SNB-75 = system: SNB-75
HCT-15 = system: HCT-15
KM12 = system: KM12
RPMI-8226 = system: RPMI-8226
HOP-62 = system: HOP-62
Malme-3M = system: Malme-3M
UACC-62 = system: UACC-62
SF-539 = system: SF-539
786-0 = system: 786-0
SN12C = system: SN12C
K562 = system: K562
DU-145 = system: DU-145
A498 = system: A498
MOLT-4 = system: MOLT-4
NCI-H460 = system: NCI-H460
SK-OV-3 = system: SK-OV-3
NCI-H226 = system: NCI-H226

CCCCCN1CCN(c2ncccn2)CC1
GI50 (SK-MEL-28): > 100 µM (inactive)
GI50 (UACC-257): > 100 µM (inactive)
GI50 (SK-MEL-2): > 100 µM (inactive)
GI50 (U-251): > 100 µM (inactive)
GI50 (RXF 393): > 100 µM (inactive)
GI50 (CAKI-1): > 100 µM (inactive)
GI50 (NCI-H23): > 100 µM (inactive)
GI50 (SF-295): > 100 µM (inactive)
GI50 (HCC 2998): > 100 µM (inactive)
GI50 (OVCAR-8): > 100 µM (inactive)
GI50 (NCI/ADR-RES): > 100 µM (inactive)
GI50 (HT-29): > 100 µM (inactive)
GI50 (Hs-578T): > 100 µM (inactive)
GI50 (MCF7): > 100 µM (inactive)
GI50 (MDA-MB-231): > 100 µM (inactive)
GI50 (EKVX): > 100 µM (inactive)
GI50 (SK-MEL-5): > 100 µM (inactive)
GI50 (T47D): > 100 µM (inactive)
GI50 (OVCAR-5): > 100 µM (inactive)
GI50 (HOP-92): 48.6 µM (inactive)
GI50 (MDA-N): > 100 µM (inactive)
GI50 (IGROV-1): > 100 µM (inactive)
GI50 (SW-620): > 100 µM (inactive)
GI50 (UO-31): > 100 µM (inactive)
GI50 (OVCAR-3): > 100 µM (inactive)
GI50 (TK-10): > 100 µM (inactive)
GI50 (A549): > 100 µM (inactive)
GI50 (HCT-116): > 100 µM (inactive)
GI50 (CCRF-CEM): > 100 µM (inactive)
GI50 (ACHN): > 100 µM (inactive)
GI50 (LOX IMVI): > 100 µM (inactive)
GI50 (OVCAR-4): > 100 µM (inactive)
GI50 (M14): > 100 µM (inactive)
GI50 (NCI-H522): > 100 µM (inactive)
GI50 (HL-60): > 100 µM (inactive)
GI50 (SR): > 100 µM (inactive)
GI50 (COLO 205): > 100 µM (inactive)
GI50 (SF-268): > 100 µM (inactive)
GI50 (SNB-19): > 100 µM (inactive)
GI50 (MDA-MB-435): > 100 µM (inactive)
GI50 (PC-3): > 100 µM (inactive)
GI50 (SNB-75): > 100 µM (inactive)
GI50 (HCT-15): > 100 µM
GI50 (KM12): > 100 µM (inactive)
GI50 (RPMI-8226): > 100 µM (inactive)
GI50 (HOP-62): > 100 µM (inactive)
GI50 (Malme-3M): > 100 µM (inactive)
GI50 (UACC-62): > 100 µM (inactive)
GI50 (SF-539): > 100 µM (inactive)
GI50 (786-0): > 100 µM (inactive)
GI50 (SN12C): > 100 µM (inactive)
GI50 (K562): > 100 µM (inactive)
GI50 (DU-145): > 100 µM (inactive)
GI50 (A498): > 100 µM (inactive)

C=CC1(O)CCCC=C1COCc1ccccc1 (centres undefined)
GI50 (SK-MEL-28): 71 µM (inactive)
GI50 (MOLT-4): 23.4 µM (inactive)
GI50 (UACC-257): > 100 µM (inactive)
GI50 (SK-MEL-2): > 100 µM (inactive)
GI50 (U-251): > 100 µM (inactive)
GI50 (RXF 393): > 100 µM (inactive)
GI50 (CAKI-1): > 100 µM (inactive)
GI50 (NCI-H23): 98.6 µM (inactive)
GI50 (SF-295): > 100 µM (inactive)
GI50 (HCC 2998): > 100 µM (inactive)
GI50 (OVCAR-8): 53 µM (inactive)
GI50 (NCI/ADR-RES): > 100 µM (inactive)
GI50 (NCI-H460): > 100 µM (inactive)
GI50 (HT-29): 93.5 µM (inactive)
GI50 (Hs-578T): > 100 µM (inactive)
GI50 (MCF7): > 100 µM (inactive)
GI50 (MDA-MB-231): > 100 µM (inactive)
GI50 (EKVX): > 100 µM (inactive)
GI50 (SK-MEL-5): 52.6 µM (inactive)
GI50 (T47D): 64 µM (inactive)
GI50 (OVCAR-5): > 100 µM (inactive)
GI50 (HOP-92): 52 µM (inactive)
GI50 (MDA-N): 73.8 µM (inactive)
GI50 (IGROV-1): 16.6 µM (inactive)
GI50 (UO-31): 45.1 µM (inactive)
GI50 (TK-10): > 100 µM (inactive)
GI50 (A549): > 100 µM (inactive)
GI50 (HCT-116): 51.3 µM (inactive)
GI50 (CCRF-CEM): 43.6 µM (inactive)
GI50 (ACHN): 56 µM (inactive)
GI50 (SK-OV-3): > 100 µM (inactive)
GI50 (LOX IMVI): 18.8 µM (inactive)
GI50 (OVCAR-4): 38.4 µM (inactive)
GI50 (M14): > 100 µM (inactive)
GI50 (NCI-H522): 16 µM (inactive)
GI50 (HL-60): 27.4 µM (inactive)
GI50 (SR): 24.8 µM (inactive)
GI50 (COLO 205): > 100 µM (inactive)
GI50 (SF-268): 67 µM (inactive)
GI50 (SNB-19): > 100 µM (inactive)
GI50 (MDA-MB-435): 47.5 µM (inactive)
GI50 (PC-3): 67.8 µM (inactive)
GI50 (SNB-75): 61.4 µM (inactive)
GI50 (HCT-15): 65.8 µM
GI50 (KM12): 50.2 µM (inactive)
GI50 (RPMI-8226): 23.8 µM (inactive)
GI50 (HOP-62): > 100 µM (inactive)
GI50 (Malme-3M): > 100 µM (inactive)
GI50 (UACC-62): > 100 µM (inactive)
GI50 (786-0): > 100 µM (inactive)
GI50 (SN12C): 70 µM (inactive)
GI50 (K562): 32.2 µM (inactive)
GI50 (DU-145): > 100 µM (inactive)
GI50 (A498): > 100 µM (inactive)
GI50 (NCI-H226): > 100 µM (inactive)
